Measured values reported in patent US20180000782A1, “THERAPEUTIC AGENT FOR KERATOCONJUNCTIVE DISORDERS” (priority 2012, published 2018).

What was measured:
[1] = tested on: primary keratocytes; experiment: Suppression of three-dimensional collagen gel contraction, primary keratocytes (Example 2); type: cell-based, rabbit; settings: TGF-β1, FIG. 3
Method: (§1) Primary subconjunctival fibroblasts and primary keratocytes were used to assess the suppression effect of a tested compound on three-dimensional collagen gel contraction in accordance with the method of Nishida et al. As in Example 1, primary subconjunctival fibroblasts were grown and detached from a culture slide. After washing, a cell suspension was made. The resulting suspension (1.1×10^7 cells/well MEM), type I collagen solution (5 mg/ml), 10×MEM, Reconstitution Buffer, and water were mixed on ice at 0.2:7:1:1:1.8 (volume ratio). A culture dish coated with 1% BSA was inoculated with 0.5 ml of the mixture, which was incubated for one hour at 37° C. to make a collagen gel. Then, 0.5 ml of serum free media, to which a certain amount (1 ng/ml) of TGF-β1 (R&D Systems) and RARγ agonist A at each of the concentrations 1 nM, 10 nM, and 100 nM were added, were each added onto the above-described gel. The gel, together with a gel to which an agent-free serum-free medium was added, was continuously incubated at 37° C. The diameter of gels was measured from the time when 24 hours has past. The gel diameter was measured for primary keratocytes in a similar manner to the primary subconjunctival fibroblasts.

[2] = tested on: MMP-1; experiment: Suppression of expression and activation of MMP-1, western blot of keratocyte supernatant; type: cell-based, rabbit; settings: R667 1×10^−6 to 1×10^−2 μM, 12 hours of pre-treatment; 0.1 ng/ml, 24 hours; FIG. 5A
Method: (§2) It is believed that secretion or expression of protease, i.e., matrix metalloproteinases (MMP), is associated with the degradation of type I collagen. In this regard, suppression of expression and activation of MMP-1, 2, 3, and 9 by RARγ agonist A was investigated. Primary keratocytes collected from a normal rabbit eye ball were cultured for 24 hours in a serum-free MEM medium. RARγ agonist A ([…]) ([…] concentration: 1×10^-6 μM, 1×10^-5 μM, 1×10^-4 μM, 1×10^-3 μM, 1×10^-2 μM) was added to the obtained culture solution and 12 hours of pre-treatment was performed. As a positive control, 10 nM of dexamethasone (Dex), which is a synthetic steroid, was added and pre-treatment was similarly performed. Then, IL-113 (0.1 ng/ml) was added for stimulation, and the supernatant was collected after 24 hours. The following western blot analysis and gelatin zymography analysis were used on the collected culture solution. After developing the supernatant of the collected culture solution in SDS-PAGE using 10% polyacrylamide gel, the separated proteins were transferred onto a nitrocellulose filter. Then, non-specific sites on the nitrocellulose filter were blocked and incubated for 24 hours at 4° C. with anti-human MMP-1 antibodies (R&D Systems) and anti-rabbit MMP-3 antibodies (Daiichi Fine Chemical Co., Ltd). ECL® reagent (GE Healthcare) was used for detection.

[3] = tested on: male Japanese white rabbits; experiment: Suppression of corneal opacity and ulceration, LPS injected into the corneal stroma; type: in vivo, rabbit; settings: 0.1% R667 (24 mM), 50 μl instillation, four times daily until day 10; 1% LPS into the corneal stroma; FIG. 6B
Method: Systemic anesthesia was applied to male Japanese white rabbits (body weight 2.5-3.5 kg, 27 rabbits) by intramuscular administration of a solution of a mixture of ketamine and xylazine. Then, topical anesthesia was applied by a 0.4% oxybuprocaine hydrochloride instillation. Furthermore, 30 μl of 1% LPS (Sigma Aldrich) was injected into the corneal stroma of one eye, but not in the other eye.
50 μl of 0.1% PBS/0.1% polysorbate 80 solution containing RARγ agonist A (R667: 0.1%, 24 mM) was instillatively administered to the rabbits injected with LPS twice after the injection on the day of LPS injection and four times daily thereafter until day 10 by using a micropipette. As a control, a 0.1% PBS/0.1% polysorbate 80 solution free of RARγ agonist A (Vehicle) was similarly administered. FIGS. 6A and 6B show representative examples of a control and a case where RARγ agonist A was administered.

[4] = tested on: MMP-2; experiment: Suppression of expression and activation of MMP-2, gelatin zymography of keratocyte supernatant; type: cell-based, rabbit; settings: R667 1×10^−6 to 1×10^−2 μM, 12 hours of pre-treatment; 0.1 ng/ml, 24 hours; FIG. 5B
Method: (§3) It is believed that secretion or expression of protease, i.e., matrix metalloproteinases (MMP), is associated with the degradation of type I collagen. In this regard, suppression of expression and activation of MMP-1, 2, 3, and 9 by RARγ agonist A was investigated. Primary keratocytes collected from a normal rabbit eye ball were cultured for 24 hours in a serum-free MEM medium. RARγ agonist A ([…]) ([…] concentration: 1×10^-6 μM, 1×10^-5 μM, 1×10^-4 μM, 1×10^-3 μM, 1×10^-2 μM) was added to the obtained culture solution and 12 hours of pre-treatment was performed. As a positive control, 10 nM of dexamethasone (Dex), which is a synthetic steroid, was added and pre-treatment was similarly performed. Then, IL-113 (0.1 ng/ml) was added for stimulation, and the supernatant was collected after 24 hours. The following western blot analysis and gelatin zymography analysis were used on the collected culture solution. After developing the supernatant of the collected culture solution on SDS-PAGE using 10% polyacrylamide gel containing 0.1% of gelatin, it was incubated for one hour at room temperature with a TBS solution containing 2.5% Triton X-100. The gel after incubation was dyed with a solution of Coomassie Brilliant Blue (Wako Pure Chemical Industries, Ltd.) and decolored with a 5% methanol-7.5% acetic acid solution (Nacalai Tesque, Inc).

[5] = tested on: normal rabbit primary keratocytes; experiment: Suppression of three-dimensional collagen gel degradation in normal rabbit primary keratocytes (Example 1); type: cell-based; settings: R667 0.1-1000 nM; stimulant 10 ng/ml and Plasminogen 60 μg/ml; 48 hours of culturing; FIG. 1
Method: Normal rabbit corneal cells were used to assess the suppression effect of a tested compound on three-dimensional collagen gel degradation in accordance with the method of Nishida et al (Investigative Ophthalmology & Visual Science 42: 1247-1253 (2001)).
Primary keratocytes collected from a normal rabbit eye ball was grown to a confluent state and detached from a culture slide with 0.05% Trypsin-EDTA. After washing in a serum free medium (product number 11095; Gibco), the number of cells were counted. The obtained primary keratocytes were mixed with the type I collagen solution Cellmatrix Type I-A (product number 637-00653; Nitta Gelatin Inc.) and Reconstitution Buffer (product number 635-00791; Nitta Gelatin Inc.) and dispensed into a 24-well plate so that the final concentration would be 1×10^5 cells/well to make a collagen gel. […]
After 48 hours of culturing, the supernatant was ultrafiltrated, 100 μl of concentrated hydrochloric acid was added and heated, and the collagen was hydrolyzed. […] The amount of hydroxyproline, which is the collagen degradation product in the solution, was measured in accordance with the method of Bergman et al (Analytical Chemistry 35(12): 1961-1965 (1963)) to assess the effect of suppressing collagen degradation of RARγ agonist A. The results are shown in FIG. 1.

[6] = tested on: primary subconjunctival fibroblasts; experiment: Suppression of three-dimensional collagen gel contraction, primary subconjunctival fibroblasts (Example 2); type: cell-based, rabbit; settings: TGF-β1 1 ng/ml, RARγ agonist A 1, 10, 100 nM, after 48 hours, FIG. 2
Method: as §1, with “past.” for “past. The gel diameter was measured for primary keratocytes in a similar manner to the primary subconjunctival fibroblasts.”

[7] = tested on: MMP-9; experiment: Suppression of expression and activation of MMP-9, gelatin zymography of keratocyte supernatant; type: cell-based, rabbit; settings: R667 1×10^−6 to 1×10^−2 μM, 12 hours of pre-treatment; IL-113 0.1 ng/ml, 24 hours; FIG. 5B
Method: as §3

[8] = tested on: MMP-3; experiment: Suppression of expression and activation of MMP-3, western blot of keratocyte supernatant; type: cell-based, rabbit; settings: R667 1×10^−6 to 1×10^−2 μM, 12 hours of pre-treatment; IL-113 0.1 ng/ml, 24 hours; FIG. 5A
Method: as §2

[9] = tested on: primary keratocytes; experiment: Suppression of three-dimensional collagen gel degradation in primary keratocytes by RARγ agonist A, B or C (Example 3); type: cell-based, rabbit; settings: R667 1 nM, CD437 1 nM and 10 nM, BMS961 10 nM; stimulant IL-1β 10 ng/ml and Plasminogen 60 μg/ml; 48 hours; FIG. 4
Method: As in Example 1, primary keratocytes were grown and detached from a culture slide. After washing, a cell suspension was made. The resulting suspension (1.1×10^7 cells/well MEM), type I collagen solution (5 mg/ml), 10×MEM, Reconstitution Buffer, and water were mixed on ice at 0.2:7:1:1:1.8 (volume ratio). A culture dish coated with 1% BSA was inoculated with 0.5 ml of the mixture, which was incubated for one hour at 37° C. to make a collagen gel.
After 48 hours of culturing, collagen was hydrolyzed and the amount of hydroxyproline, which is the collagen degradation product, was measured by the same method as Example 1 to assess the effect of suppressing collagen degradation of each RARγ agonist.

SMILES: CC1(C)CCC(C)(C)c2cc(Cn3cccn3)c(/C=C/c3ccc(C(=O)O)cc3)cc21 [RARγ agonist A, (E)-4-(2-{3-[(1H-pyrazole-1-yl)methyl]-5,5,8,8-tetramethyl-5,6,7,8-tetrahydronaphthalene-2-yl}vinyl)benzoic acid]
- suppression of collagen gel contraction (diameter of collagen gel) [1]: can suppress
- expression and activation of MMP-1 (bands of Pro-MMP-1 and active MMP-1) [2]: concentration-dependently suppresses
- corneal opacity and ulceration [3]: corneal opacity and ulceration were not observed
- expression and activation of MMP-2 (bands of Pro-MMP-2 and active MMP-2) [4]: concentration-dependently suppresses
- effect of suppressing collagen degradation (amount of hydroxyproline) [5]: dosage-dependent effect of suppressing keratoconjunctive collagen degradation
- suppression of collagen gel contraction (diameter of collagen gel) [6]: can suppress
- expression and activation of MMP-9 (bands of Pro-MMP-9 and active MMP-9) [7]: concentration-dependently suppresses
- expression and activation of MMP-3 (bands of Pro-MMP-3 and active MMP-3) [8]: concentration-dependently suppresses
- effect of suppressing collagen degradation (ratio of amount of hydroxyproline) [9]: exhibited an effect of suppressing keratoconjunctive collagen degradation
